Data on five compounds can be found in patent publication US9000174B2, “4-phenylsulfonamidopiperidines as calcium channel blockers” (Purdue Pharma L.P., priority 2004, dated 2015).

In assay [1] the target is T1, L-type calcium channel (LTCC) (Rattus norvegicus, UniProt P22002).
T1 construct: differentiated A7r5 cells were trypsinized, then seeded on tissue culture treated 96-well clear-bottom black plates; endogenous in cells; host or cells: differentiated A7r5 cells (ATCC)
Nature of the assay: FLIPR calcium mobilization (and/or electrophysiological) assay for L-type calcium channel. The settings on record: calcium mobilization and/or electrophysiological in vitro assay; differentiated A7r5 cells, 90 mM KCl. It counts as cell-based. As for the experimental part:
A7r5 (ATCC) cells were maintained and routinely cultured in A7r5 growth medium consisting of Dulbecco's Modified Eagles Medium containing 10% FBS, 100 U/mL penicillin, 100 μg/mL streptomycin, 4 mM L-glutamine, and 0.15% sodium bicarbonate. 80-90% confluent flasks of cells were differentiated using the following differentiation medium: A7r5 Growth Medium plus 1 mM dibutyryl cyclic AMP (Sigma). Cells were differentiated for 8 days by replacing differentiation medium every 2-3 days.
One day prior to performing this assay, differentiated A7r5 cells were trypsinized, then seeded on tissue culture treated 96-well clear-bottom black plates (Becton Dickinson, Franklin Lakes, N.J.) at a dilution of 1:1 from a confluent T150 cm^2 flask. On the day of the assay, the plates were washed with A7r5 wash buffer (127 mM NaCl, 2 mM MgCl2, 700 μM NaH2PO4, 5 mM CaCl2, 5 mM NaHCO3, 8 mM HEPES, 10 mM glucose, pH 7.4), then loaded with 0.1 mL of A7r5 wash buffer containing Fluo-4 (3 μM final concentration, Molecular Probes, Eugene, Oreg.). After 1 hour, the cells were washed with 0.1 mL A7r5 wash buffer and resuspended in 0.05 mL A7r5 assay buffer that was composed of A7r5 wash buffer plus 50 μM valinomycin (Sigma). Plates were then transferred to a FLIPR^96 for assay. The FLIPR measured basal Fluo-4 fluorescence for 15 seconds, then added 0.05 mL of each compound tested diluted in A7r5 assay buffer at final concentrations ranging from about 846 pM to about 17 μM. Fluo-4 fluorescence was then measured for 5 minutes. 0.1 mL KCl agonist dissolved in A7r5 assay buffer was then added to the cells to produce a final concentration of 90 mM KCl, and fluorescence was measured for another 45 seconds. Data were collected over the entire time course and analyzed using Excel, Graph Pad Prism, or Activity Base software.
Background: Calcium flux is commonly read through the fluorescence of an indicator in the cells.

The target in assay [2] is T2, N-type calcium channel (NTCC) (Homo sapiens, UniProt Q00975).
T2 construct: endogenous in cells; host or cells: differentiated IMR32 cells (ATCC)
Nature of the assay: FLIPR calcium mobilization (and/or electrophysiological) assay for N-type calcium channel. The class given is cell-based. The settings on record: calcium mobilization and/or electrophysiological in vitro assay; differentiated IMR32 cells, 90 mM KCl, 5 μM nitrendipine. As for the experimental part: Unless noted otherwise, cell culture reagents were purchased from Life Technologies of Rockville, Md. IMR32 cells (American Type Culture Collection, ATCC, Manassas, Va.) were routinely cultured in growth medium consisting of minimum essential medium containing 10% fetal bovine serum (FBS, Hyclone, Logan, Utah), 100 U/mL penicillin, 100 μg/mL streptomycin, 2 mM L-glutamine, 1 mM sodium pyruvate, and 1×MEM non-essential amino acids. 80-90% confluent flasks of cells were differentiated using the following differentiation medium: Growth medium plus 1 mM dibutyryl cyclic AMP (Sigma, St. Louis, Mo.), and 2.5 μM bromodeoxyuridine (Sigma). Cells were differentiated for 8 days by replacing differentiation medium every 2-3 days.
One day prior to performing this assay, differentiated IMR32 cells were treated with 1× CellStripper, and seeded on poly-D-lysine-coated 96-well clear-bottom black plates (Becton Dickinson, Franklin Lakes, N.J.) at 200,000 cells/well. On the day of the assay, the cell plates were washed with IMR32 buffer (127 mM NaCl, 1 mM KCl, 2 mM MgCl2, 700 μM NaH2PO4, 5 mM CaCl2, 5 mM NaHCO3, 8 mM HEPES, 10 mM glucose, pH 7.4), then pre-stimulated with KCl and loaded as follows: 0.05 mL of IMR32 buffer, 0.05 mL of each compound tested diluted in IMR32 buffer containing 20 μM nitrendipine (Sigma), and 0.1 mL KCl dissolved in IMR32 buffer, plus Fluo-4 were added (3 μM final concentration, Molecular Probes, Eugene, Oreg.). Final test compound concentrations ranged from about 846 pM to about 17 μM, final nitrendipine concentration was 5 μM, and final KCl concentration was 90 mM. After 1 hour, the cells were washed twice with 0.05 mL of each compound tested in nitrendipine-containing IMR32 buffer (no KCl or Fluo-4), and then replaced with 0.1 mL of each compound tested in nitrendipine-containing IMR32 buffer. Plates were then transferred to a Fluorimetric Imaging Plate Reader (FLIPR^96, Molecular Devices, Inc., Sunnyvale, Calif.) for assay. The FLIPR measured basal Fluo-4 fluorescence for 315 seconds (i.e., 5 minutes and 15 seconds), then added 0.1 mL KCl agonist dissolved in IMR32 buffer and measured fluorescence for another 45 seconds. Final test compound concentrations on the cells after FLIPR read ranged from about 846 pM to about 17 μM, final nitrendipine concentration was 5 μM, and final KCl concentration was 90 mM. Data were collected over the entire time course and analyzed using Excel, Graph Pad Prism (version 3.02, Graph Pad, San Diego, Calif.), or Activity Base (version 5.1, IDBS, Parsippany, N.J.) software.
N-type calcium channel expressing HEK-293 cells were created in two stages. Stage 1 was created as follows. The rat α1b, and β3 cDNA expression constructs (2.5 μg each) were co-transfected into human embryonic kidney (HEK-293) cells by Lipofectamine Plus reagent (Invitrogen), as per manufacturer's instructions. 24 hours later, cells were split in limiting dilution into multiple 96-well plates in selection media containing 20 μg/mL blasticidin and 500 μg/mL geneticin, and incubated for 3 weeks at 37° C., 5% CO2, 95% humidity. Plates containing ≦1 clone per well were cultured until wells positive for single clones were confluent. Individual clones were then arrayed into columns of a destination 96-well plate, and partly split into 6-well plates for culture maintenance. Array plates were washed once with IMR32 buffer and cells loaded for 1 hour with 0.1 mL of IMR32 buffer containing Fluo-4 (3 μM final concentration, Molecular Probes). Then they were washed twice with 0.1 mL of IMR32 buffer, and replaced with 0.1 mL IMR32 buffer. Plates were then transferred to a FLIPR^96 for assay. The FLIPR measured basal Fluo-4 fluorescence for 315 seconds, then added 0.1 mL KCl agonist dissolved in IMR32 buffer and measured fluorescence for another 45 seconds. Final KCl concentration was 90 mM. Data were collected over the entire time course and analyzed using Excel, Graph Pad Prism, or Activity Base software. […]

T1 sequence (P22002 whole entry): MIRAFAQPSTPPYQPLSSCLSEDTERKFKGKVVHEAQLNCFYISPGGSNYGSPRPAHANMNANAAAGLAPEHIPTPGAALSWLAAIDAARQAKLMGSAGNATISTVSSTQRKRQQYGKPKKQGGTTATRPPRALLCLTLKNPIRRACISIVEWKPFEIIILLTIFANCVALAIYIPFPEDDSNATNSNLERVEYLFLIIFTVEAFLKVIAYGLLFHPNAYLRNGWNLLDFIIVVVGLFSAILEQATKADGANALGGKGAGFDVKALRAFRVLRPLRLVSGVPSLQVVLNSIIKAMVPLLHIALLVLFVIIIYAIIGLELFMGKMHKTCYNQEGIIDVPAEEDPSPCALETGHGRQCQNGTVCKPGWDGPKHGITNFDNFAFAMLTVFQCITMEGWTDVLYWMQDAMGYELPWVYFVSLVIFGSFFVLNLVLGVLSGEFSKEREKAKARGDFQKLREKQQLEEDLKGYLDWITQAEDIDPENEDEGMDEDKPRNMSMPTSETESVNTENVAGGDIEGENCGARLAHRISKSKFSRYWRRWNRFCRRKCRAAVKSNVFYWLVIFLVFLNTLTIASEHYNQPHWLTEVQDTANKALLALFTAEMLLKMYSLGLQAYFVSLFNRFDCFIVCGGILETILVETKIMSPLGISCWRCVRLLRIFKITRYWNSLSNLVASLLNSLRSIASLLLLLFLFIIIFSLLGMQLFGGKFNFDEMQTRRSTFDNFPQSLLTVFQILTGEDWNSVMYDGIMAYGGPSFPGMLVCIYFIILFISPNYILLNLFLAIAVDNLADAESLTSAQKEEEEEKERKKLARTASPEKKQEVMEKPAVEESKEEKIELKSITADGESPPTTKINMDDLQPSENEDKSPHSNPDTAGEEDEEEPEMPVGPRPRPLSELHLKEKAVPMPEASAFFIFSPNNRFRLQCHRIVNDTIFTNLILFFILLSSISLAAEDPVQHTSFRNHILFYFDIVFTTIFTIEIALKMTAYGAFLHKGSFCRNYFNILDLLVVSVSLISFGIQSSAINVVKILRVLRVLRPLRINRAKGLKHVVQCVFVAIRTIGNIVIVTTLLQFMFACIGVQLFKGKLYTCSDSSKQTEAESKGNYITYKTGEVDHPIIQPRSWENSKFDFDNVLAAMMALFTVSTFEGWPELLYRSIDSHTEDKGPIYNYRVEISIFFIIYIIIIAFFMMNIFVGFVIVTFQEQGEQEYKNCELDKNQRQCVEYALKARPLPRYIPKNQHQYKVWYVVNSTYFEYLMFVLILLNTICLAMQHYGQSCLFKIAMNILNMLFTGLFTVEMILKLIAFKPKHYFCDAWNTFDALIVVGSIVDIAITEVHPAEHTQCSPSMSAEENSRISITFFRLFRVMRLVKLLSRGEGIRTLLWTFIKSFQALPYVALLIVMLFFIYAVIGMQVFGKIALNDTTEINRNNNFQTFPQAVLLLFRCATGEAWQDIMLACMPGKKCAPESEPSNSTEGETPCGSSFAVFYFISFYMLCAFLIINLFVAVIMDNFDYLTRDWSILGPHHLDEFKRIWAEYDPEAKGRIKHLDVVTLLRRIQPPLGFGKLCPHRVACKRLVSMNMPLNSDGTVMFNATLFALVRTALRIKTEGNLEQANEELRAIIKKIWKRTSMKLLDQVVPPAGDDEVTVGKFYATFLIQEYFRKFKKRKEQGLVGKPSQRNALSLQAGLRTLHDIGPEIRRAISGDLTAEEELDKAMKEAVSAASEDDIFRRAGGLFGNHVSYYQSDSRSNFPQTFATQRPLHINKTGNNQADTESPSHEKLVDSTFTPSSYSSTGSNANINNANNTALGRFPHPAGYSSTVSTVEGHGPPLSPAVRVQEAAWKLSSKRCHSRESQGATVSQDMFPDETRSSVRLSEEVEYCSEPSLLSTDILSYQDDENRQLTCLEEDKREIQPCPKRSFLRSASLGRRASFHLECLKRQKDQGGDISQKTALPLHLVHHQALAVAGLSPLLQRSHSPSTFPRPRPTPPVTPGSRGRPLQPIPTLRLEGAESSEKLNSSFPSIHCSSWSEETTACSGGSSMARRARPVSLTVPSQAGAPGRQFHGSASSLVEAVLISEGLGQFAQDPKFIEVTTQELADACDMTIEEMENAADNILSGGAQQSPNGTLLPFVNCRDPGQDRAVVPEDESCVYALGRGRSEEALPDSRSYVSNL
T1 sequence (P54290 25-944 partner limits assumed): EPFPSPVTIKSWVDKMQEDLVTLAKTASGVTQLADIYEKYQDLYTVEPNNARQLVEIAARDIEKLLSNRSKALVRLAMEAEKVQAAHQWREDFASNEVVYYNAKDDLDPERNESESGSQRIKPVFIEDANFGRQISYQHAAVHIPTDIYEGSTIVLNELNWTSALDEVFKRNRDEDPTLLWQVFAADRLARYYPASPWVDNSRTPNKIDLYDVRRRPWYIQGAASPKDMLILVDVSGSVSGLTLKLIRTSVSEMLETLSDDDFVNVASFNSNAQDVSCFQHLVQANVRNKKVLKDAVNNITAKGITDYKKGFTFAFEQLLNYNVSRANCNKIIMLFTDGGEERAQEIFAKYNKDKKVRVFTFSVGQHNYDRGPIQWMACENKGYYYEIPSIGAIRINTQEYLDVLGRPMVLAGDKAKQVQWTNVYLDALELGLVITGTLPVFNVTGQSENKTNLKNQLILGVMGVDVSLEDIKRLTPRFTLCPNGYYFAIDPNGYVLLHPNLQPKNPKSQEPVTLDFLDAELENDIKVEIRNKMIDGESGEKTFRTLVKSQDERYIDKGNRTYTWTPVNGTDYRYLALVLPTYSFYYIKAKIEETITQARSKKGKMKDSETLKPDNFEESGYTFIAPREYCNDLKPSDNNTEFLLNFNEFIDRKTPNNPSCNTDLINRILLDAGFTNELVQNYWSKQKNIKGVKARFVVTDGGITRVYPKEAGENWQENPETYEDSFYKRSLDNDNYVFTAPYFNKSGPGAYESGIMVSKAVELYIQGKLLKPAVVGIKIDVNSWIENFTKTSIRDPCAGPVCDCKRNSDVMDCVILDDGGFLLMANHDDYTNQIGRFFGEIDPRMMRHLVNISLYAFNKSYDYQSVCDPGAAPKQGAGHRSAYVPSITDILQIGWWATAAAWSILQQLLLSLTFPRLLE
T1 sequence (P54290 945-1091 partner limits assumed): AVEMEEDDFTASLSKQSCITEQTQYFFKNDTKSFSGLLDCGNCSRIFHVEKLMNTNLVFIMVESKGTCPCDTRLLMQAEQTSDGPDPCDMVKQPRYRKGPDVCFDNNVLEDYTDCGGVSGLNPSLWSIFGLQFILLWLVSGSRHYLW
T1 sequence (P54287 whole entry partner): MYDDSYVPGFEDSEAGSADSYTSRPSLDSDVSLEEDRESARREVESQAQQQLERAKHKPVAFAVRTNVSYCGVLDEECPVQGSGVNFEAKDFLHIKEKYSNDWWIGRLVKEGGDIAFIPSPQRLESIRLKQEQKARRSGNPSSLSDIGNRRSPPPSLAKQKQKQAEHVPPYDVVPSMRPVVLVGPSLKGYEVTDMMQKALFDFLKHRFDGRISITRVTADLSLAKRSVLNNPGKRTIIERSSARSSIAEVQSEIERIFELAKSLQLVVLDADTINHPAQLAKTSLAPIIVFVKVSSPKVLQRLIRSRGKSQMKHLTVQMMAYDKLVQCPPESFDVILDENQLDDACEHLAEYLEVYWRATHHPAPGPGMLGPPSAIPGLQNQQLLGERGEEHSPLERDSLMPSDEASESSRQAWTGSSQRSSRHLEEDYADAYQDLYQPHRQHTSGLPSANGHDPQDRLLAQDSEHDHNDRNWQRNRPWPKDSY

In general, IC50 refers to the concentration at which inhibition is half-maximal. `CN[C@@H](CC(C)C)C(=O)N1CCC(N(C2CC2)S(=O)(=O)c2cccc(C(F)(F)F)c2)CC1` [(2S) N-cyclopropyl-N-[1-(4-methyl-2-methylamino-pentanoyl)piperidin-4-yl]-3-trifluoromethylbenzenesulfonamide]: the values for the IC50 in assay [1] and in assay [2] were 10000 nM and 360 nM, respectively.
The corresponding values for `O=C(CC=C(c1ccc(F)cc1)c1ccc(F)cc1)N1CCC(N(C2CC2)S(=O)(=O)c2ccccc2)CC1` [N-cyclopropyl-N-{1-[4,4-bis(4-fluorophenyl)but-3-enoyl]piperidin-4-yl}benzenesulfonamide] are 2590 nM and 1240 nM.
The corresponding values for `O=S(=O)(c1cccc(C(F)(F)F)c1)N(C1CC1)C1CCN(Cc2ccnc3ccccc23)CC1` [N-cyclopropyl-N-[1-(4-quinolinylmethyl)piperidin-4-yl]-3-trifluoromethylbenzenesulfonamide] are 1700 nM and 860 nM.
On to `COc1ccc(C(=O)N2CCC(N(C3CC3)S(=O)(=O)c3cccc(C(F)(F)F)c3)CC2)cc1C(F)(F)F` [N-Cyclopropyl-N-{1-[(3-trifluoromethyl-4-methoxy)benzoyl]piperidin-4-yl}-3-trifluoromethylbenzenesulfonamide], for which the IC50 was determined as 4570 nM in assay [1] and 300 nM in assay [2].
The like results for `O=C(CCC(c1ccc(F)cc1)c1ccc(F)cc1)N1CCC(N(C2CC2)S(=O)(=O)c2ccccc2)CC1` [N-cyclopropyl-N-{1-[4,4-bis(4-fluorophenyl)butanoyl]piperidin-4-yl}benzenesulfonamide] were, in that order, 3240 nM and 1090 nM.
